Source: US11000033B2, “Ketone or oxime compound, and herbicide” (NISSAN CHEMICAL CORPORATION, priority 2014, dated 2021)

Tests used:
Format in all cases: in vivo
Abutilon theophrasti = test: Test Example 5: herbicidal effect by foliage application, plastic box (symbol M); conditions: 320 g/ha, 3 weeks after application
Procedure, shortened: (§1)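 Greenhouse foliar test: seedlings at 14 days, grown 25° C. to 30° C. in sterilized diluvial soil; compound applied as an aqueous dilution of an emulsion; response read 3 weeks after spraying.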

Monochoria vaginalis [1] = test: Test Example 2: herbicidal activity, application during weed generation in submerged conditions (symbol C); conditions: Table 23; application herbicide amount 320 g/ha; grade 0-5 by criteria of Test Example 1
Procedure, shortened: (§2)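 Paddy pot test, submerged (4 cm water), alluvial soil, mixed sowing; greenhouse 25–30° C. Emulsion formulation diluted to predetermined rate, applied onto floodwater at 1–2 leaf stage. Visual herbicidal rating at 3 wk post-treatment.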

beet = test: Test Example 5: effect on crop by foliage application, plastic box (symbol f); conditions: 320 g/ha, 3 weeks after application
Procedure, shortened: (§3)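 Sterilized diluvial soil, plastic box (21 × 13 × 7 cm); spot sowing, ~1.5 cm soil cover; greenhouse 25–30° C.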

Setaria viridis = test: Test Example 5: herbicidal effect by foliage application, plastic box (symbol G); conditions: 320 g/ha, 3 weeks after application
Procedure, shortened: as §1

Scirpus juncoides [2] = test: Test Example 1: herbicidal activity, application before weed generation in submerged conditions (symbol B); conditions: application herbicide amount 320 g/ha
Procedure, shortened: (§4)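 Steps: alluvial soil flooded to 4 cm; weed seeds sown together; rice seedlings (2.5 leaf) transplanted; diluted emulsion applied to water surface the same day as sowing; plants grown at 25–30 °C in greenhouse; herbicidal effect rated on a 0–5 scale at 3 weeks.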

Alopecurus myosuroides = test: Test Example 5: herbicidal effect by foliage application, plastic box (symbol J); conditions: 320 g/ha, 3 weeks after application
Procedure, shortened: as §1

Stellaria media = test: Test Example 5: herbicidal effect by foliage application, plastic box (symbol P); conditions: 320 g/ha, 3 weeks after application
Procedure, shortened: as §1

Amaranthus retroflexus = test: Test Example 5: herbicidal effect by foliage application, plastic box (symbol N); conditions: 320 g/ha, 3 weeks after application
Procedure, shortened: as §1

[3] = system: Echinochloa oryzacola Vasing.; test: Test Example 2: herbicidal activity, application during weed generation in submerged conditions (symbol A); conditions: Table 23; application herbicide amount 320 g/ha; grade 0-5 by criteria of Test Example 1
Procedure, shortened: as §2

Digitaria ciliaris = test: Test Example 5: herbicidal effect by foliage application, plastic box (symbol F); conditions: 320 g/ha, 3 weeks after application
Procedure, shortened: as §1

Apera spica-venti = test: Test Example 5: herbicidal effect by foliage application, plastic box (symbol L); conditions: 320 g/ha, 3 weeks after application
Procedure, shortened: as §1

[4] = system: Echinochloa oryzacola Vasing.; test: Test Example 1: herbicidal activity, application before weed generation in submerged conditions (symbol A); conditions: application herbicide amount 320 g/ha
Procedure, shortened: as §4

transplanted rice plant = test: Test Example 1: effect on crop, application before weed generation in submerged conditions (symbol a); conditions: application herbicide amount 320 g/ha
Procedure, shortened: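 Rice at 2.5 leaf stage transplanted into submerged soil (4 cm depth) sown with three weed species; herbicide applied before weed emergence.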

Chenopodium album = test: Test Example 5: herbicidal effect by foliage application, plastic box (symbol O); conditions: 320 g/ha, 3 weeks after application
Procedure, shortened: as §1

[5] = system: directly sowed rice plant; test: Test Example 3: effect on crop by foliage application, Wagner pot (symbol b); conditions: application herbicide amount 320 g/ha
Procedure, shortened: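 Alluvial soil in a 1/10000-are Wagner pot was flooded to a water depth of 0.1–0.5 cm. Echinochloa crus-galli var. crus-galli, Leptochloa chinensis, Cyperus difformis and rice were sown into it and grown in a greenhouse at 25–30 °C.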

Scirpus juncoides [6] = test: Test Example 2: herbicidal activity, application during weed generation in submerged conditions (symbol B); conditions: Table 23; application herbicide amount 320 g/ha; grade 0-5 by criteria of Test Example 1
Procedure, shortened: as §2

corn = test: Test Example 5: effect on crop by foliage application, plastic box (symbol c); conditions: 320 g/ha, 3 weeks after application
Procedure, shortened: as §3

Leptochloa chinensis = test: Test Example 3: herbicidal effect by foliage application, Wagner pot (symbol D); conditions: application herbicide amount 320 g/ha
Procedure, shortened: (§5)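 Foliar spray of water-diluted emulsion formulation at a predetermined herbicide amount onto 14-day-old plants in flooded alluvial soil (water depth 0.1–0.5 cm), greenhouse 25–30 °C; rice sown alongside. Scored 3 wk post-application on set criteria.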

soybean = test: Test Example 5: effect on crop by foliage application, plastic box (symbol d); conditions: 320 g/ha, 3 weeks after application
Procedure, shortened: as §3

wheat = test: Test Example 5: effect on crop by foliage application, plastic box (symbol e); conditions: 320 g/ha, 3 weeks after application
Procedure, shortened: as §3

Lolium multiflorum Lam. = test: Test Example 5: herbicidal effect by foliage application, plastic box (symbol K); conditions: 320 g/ha, 3 weeks after application
Procedure, shortened: as §1

rice plant = test: Test Example 5: effect on crop by foliage application, plastic box (symbol b); conditions: 320 g/ha, 3 weeks after application
Procedure, shortened: as §3

Veronica persica = test: Test Example 5: herbicidal effect by foliage application, plastic box (symbol R); conditions: 320 g/ha, 3 weeks after application
Procedure, shortened: as §1

Cyperus difformis = test: Test Example 3: herbicidal effect by foliage application, Wagner pot (symbol E); conditions: application herbicide amount 320 g/ha
Procedure, shortened: as §5

[7] = system: Echinochloa crus-galli var. crus-galli; test: Test Example 3: herbicidal effect by foliage application, Wagner pot (symbol H); conditions: application herbicide amount 320 g/ha
Procedure, shortened: as §5

rapeseed = test: Test Example 5: effect on crop by foliage application, plastic box (symbol g); conditions: 320 g/ha, 3 weeks after application
Procedure, shortened: as §3

Monochoria vaginalis [8] = test: Test Example 1: herbicidal activity, application before weed generation in submerged conditions (symbol C); conditions: application herbicide amount 320 g/ha
Procedure, shortened: as §4

[9] = system: Echinochloa crus-galli var. crus-galli; test: Test Example 5: herbicidal effect by foliage application, plastic box (symbol H); conditions: 320 g/ha, 3 weeks after application
Procedure, shortened: as §1

Galium spurium = test: Test Example 5: herbicidal effect by foliage application, plastic box (symbol Q); conditions: 320 g/ha, 3 weeks after application
Procedure, shortened: as §1

Avena fatua = test: Test Example 5: herbicidal effect by foliage application, plastic box (symbol I); conditions: 320 g/ha, 3 weeks after application
Procedure, shortened: as §1

Compound	M: Abutilon theophrasti, herbicidal effect (criteria of Test Example 1) (Abutilon theophrasti)	Herbicidal effect grade, C: Monochoria vaginalis (Monochoria vaginalis [1])	f: beet, effect on crop (criteria of Test Example 1) (beet)	G: Setaria viridis, herbicidal effect (criteria of Test Example 1) (Setaria viridis)	Herbicidal effect grade, B: Scirpus juncoides (Scirpus juncoides [2])	J: Alopecurus myosuroides, herbicidal effect (criteria of Test Example 1) (Alopecurus myosuroides)	P: Stellaria media, herbicidal effect (criteria of Test Example 1) (Stellaria media)	N: Amaranthus retroflexus, herbicidal effect (criteria of Test Example 1) (Amaranthus retroflexus)	Herbicidal effect grade, A: Echinochloa oryzacola Vasing. [3]	F: Digitaria ciliaris, herbicidal effect (criteria of Test Example 1) (Digitaria ciliaris)	L: Apera spica-venti, herbicidal effect (criteria of Test Example 1) (Apera spica-venti)	Herbicidal effect grade, A: Echinochloa oryzacola Vasing. [4]	Effect grade on crop, a: transplanted rice plant (transplanted rice plant)	O: Chenopodium album, herbicidal effect (criteria of Test Example 1) (Chenopodium album)	effect on crop b (directly sowed rice plant), grade 0-5 [5]	Herbicidal effect grade, B: Scirpus juncoides (Scirpus juncoides [6])	c: corn, effect on crop (criteria of Test Example 1) (corn)	herbicidal effect on D (Leptochloa chinensis), grade 0-5 (Leptochloa chinensis)	d: soybean, effect on crop (criteria of Test Example 1) (soybean)	e: wheat, effect on crop (criteria of Test Example 1) (wheat)	other results
CCCC=Cc1cc(C)c(C2=C(O)CC(CC(C)=NOC)C2=O)c(C)c1 (stereo not drawn) [6-071]	0 (Herbicidal ratio of 5% or lower (almost no effect))	0 (Herbicidal ratio of 5% or lower (almost no effect))	0 (Herbicidal ratio of 5% or lower (almost no effect))	0 (Herbicidal ratio of 5% or lower (almost no effect))	0 (Herbicidal ratio of 5% or lower (almost no effect))	3 (Herbicidal ratio of 40% or higher and lower than 70%)	0 (Herbicidal ratio of 5% or lower (almost no effect))	0 (Herbicidal ratio of 5% or lower (almost no effect))	2 (Herbicidal ratio of 20% or higher and lower than 40%)	0 (Herbicidal ratio of 5% or lower (almost no effect))	2 (Herbicidal ratio of 20% or higher and lower than 40%)	4 (Herbicidal ratio of 70% or higher and lower than 90%)	0 (Herbicidal ratio of 5% or lower (almost no effect))	0 (Herbicidal ratio of 5% or lower (almost no effect))	1 (Herbicidal ratio of 5% or higher and lower than 20%)	0 (Herbicidal ratio of 5% or lower (almost no effect))	0 (Herbicidal ratio of 5% or lower (almost no effect))	5 (Herbicidal ratio of 90% or more (almost completely withered))	0 (Herbicidal ratio of 5% or lower (almost no effect))	2 (Herbicidal ratio of 20% or higher and lower than 40%)	K: Lolium multiflorum Lam., herbicidal effect (criteria of Test Example 1) (Lolium multiflorum Lam.): 4 (Herbicidal ratio of 70% or higher and lower than 90%); b: directly sowed rice plant, effect on crop (criteria of Test Example 1) (rice plant): 1 (Herbicidal ratio of 5% or higher and lower than 20%); R: Veronica persica, herbicidal effect (criteria of Test Example 1) (Veronica persica): 0 (Herbicidal ratio of 5% or lower (almost no effect)); herbicidal effect on E, grade 0-5 (Cyperus difformis): 0 (Herbicidal ratio of 5% or lower (almost no effect)); herbicidal effect on H (Echinochloa crus-galli var. crus-galli), grade 0-5 [7]: 4 (Herbicidal ratio of 70% or higher and lower than 90%); g: rapeseed, effect on crop (criteria of Test Example 1) (rapeseed): 0 (Herbicidal ratio of 5% or lower (almost no effect)); Herbicidal effect grade, C: Monochoria vaginalis (Monochoria vaginalis [8]): 0 (Herbicidal ratio of 5% or lower (almost no effect)); H: Echinochloa crus-galli var. crus-galli, herbicidal effect (criteria of Test Example 1) [9]: 0 (Herbicidal ratio of 5% or lower (almost no effect)); Q: Galium spurium, herbicidal effect (criteria of Test Example 1) (Galium spurium): 0 (Herbicidal ratio of 5% or lower (almost no effect)); I: Avena fatua, herbicidal effect (criteria of Test Example 1) (Avena fatua): 0 (Herbicidal ratio of 5% or lower (almost no effect))
CON=C(C)CC1CC(O)=C(c2c(C)cc(C=Cc3ccccc3)cc2C)C1=O (stereo not drawn) [6-072]	0 (Herbicidal ratio of 5% or lower (almost no effect))	0 (Herbicidal ratio of 5% or lower (almost no effect))	0 (Herbicidal ratio of 5% or lower (almost no effect))	4 (Herbicidal ratio of 70% or higher and lower than 90%)	0 (Herbicidal ratio of 5% or lower (almost no effect))	0 (Herbicidal ratio of 5% or lower (almost no effect))	0 (Herbicidal ratio of 5% or lower (almost no effect))	0 (Herbicidal ratio of 5% or lower (almost no effect))	1 (Herbicidal ratio of 5% or higher and lower than 20%)	0 (Herbicidal ratio of 5% or lower (almost no effect))	0 (Herbicidal ratio of 5% or lower (almost no effect))	4 (Herbicidal ratio of 70% or higher and lower than 90%)	0 (Herbicidal ratio of 5% or lower (almost no effect))	0 (Herbicidal ratio of 5% or lower (almost no effect))	0 (Herbicidal ratio of 5% or lower (almost no effect))	0 (Herbicidal ratio of 5% or lower (almost no effect))	3 (Herbicidal ratio of 40% or higher and lower than 70%)	5 (Herbicidal ratio of 90% or more (almost completely withered))	0 (Herbicidal ratio of 5% or lower (almost no effect))	0 (Herbicidal ratio of 5% or lower (almost no effect))	K: Lolium multiflorum Lam., herbicidal effect (criteria of Test Example 1) (Lolium multiflorum Lam.): 2 (Herbicidal ratio of 20% or higher and lower than 40%); b: directly sowed rice plant, effect on crop (criteria of Test Example 1) (rice plant): 2 (Herbicidal ratio of 20% or higher and lower than 40%); R: Veronica persica, herbicidal effect (criteria of Test Example 1) (Veronica persica): 0 (Herbicidal ratio of 5% or lower (almost no effect)); herbicidal effect on E, grade 0-5 (Cyperus difformis): 0 (Herbicidal ratio of 5% or lower (almost no effect)); herbicidal effect on H (Echinochloa crus-galli var. crus-galli), grade 0-5 [7]: 5 (Herbicidal ratio of 90% or more (almost completely withered)); g: rapeseed, effect on crop (criteria of Test Example 1) (rapeseed): 0 (Herbicidal ratio of 5% or lower (almost no effect)); Herbicidal effect grade, C: Monochoria vaginalis (Monochoria vaginalis [8]): 0 (Herbicidal ratio of 5% or lower (almost no effect)); H: Echinochloa crus-galli var. crus-galli, herbicidal effect (criteria of Test Example 1) [9]: 1 (Herbicidal ratio of 5% or higher and lower than 20%); Q: Galium spurium, herbicidal effect (criteria of Test Example 1) (Galium spurium): 0 (Herbicidal ratio of 5% or lower (almost no effect)); I: Avena fatua, herbicidal effect (criteria of Test Example 1) (Avena fatua): 3 (Herbicidal ratio of 40% or higher and lower than 70%)
